# Source: article PMC3852541, “Construction of an in vitro bypassed pyruvate decarboxylation pathway using thermostable enzyme modules and its application to N-acetylglutamate production” (Microbial Cell Factories, 2013)
# Molecular target: T1, TtADDH (Thermus thermophilus, UniProt Q53WH9)
# T1 construct: gene TTHB247; full-length from RIKEN T. thermophilus HB8 expression plasmid set; E. coli Rosetta2 (DE3), heat-treated lysate (70 C, 30 min)
# Assay: NAD+ reduction at […] nm; HPLC of products
# Type: biochemical
# Conditions: 0.2 mM NAD+, 0.2 mM CoA, 0.2 mM acetaldehyde; 50 mM HEPES-NaOH pH 7.0, 100 mM KCl, 10 mM MgCl2, 50 C
# T1 sequence (Q53WH9 whole entry): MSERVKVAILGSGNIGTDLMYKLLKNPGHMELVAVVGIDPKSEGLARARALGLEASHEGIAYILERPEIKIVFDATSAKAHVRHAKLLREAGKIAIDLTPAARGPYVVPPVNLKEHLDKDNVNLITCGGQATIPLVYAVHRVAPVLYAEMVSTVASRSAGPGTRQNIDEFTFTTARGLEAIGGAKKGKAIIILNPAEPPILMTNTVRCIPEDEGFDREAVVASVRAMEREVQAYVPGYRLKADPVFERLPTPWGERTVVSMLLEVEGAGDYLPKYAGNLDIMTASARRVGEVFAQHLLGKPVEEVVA
compound,measurement,value
CC=O [acetaldehyde],NAD+ reduction at 340 nm; HPLC of products,TtADDH could catalyze the oxidation of acetaldehyde in both CoA-dependent (acetyl-CoA-forming) and CoA-independent
